According to the NIST ThermoML archive (doi:10.1016/j.jct.2009.04.019):
Several values for one entry are separate records, joined by “and”; a condition that tells them apart may be missing. Identical values can stand only once.

Conditions: Liquid, Transpiration method

C[C@H](O)CO [(+)-(S)-1,2-propanediol]
Conditions	vapor or sublimation pressure
283.5 K	0.00427 kPa
288.2 K	0.00685 kPa
293.5 K	0.01187 kPa and 0.00968 kPa
297.4 K	0.01371 kPa
298.2 K	0.01924 kPa
298.4 K	0.01891 kPa
301.3 K	0.025 kPa
301.4 K	0.01968 kPa
303.3 K	0.02341 kPa
303.4 K	0.02968 kPa
305.4 K	0.02776 kPa
306.3 K	0.03848 kPa
306.4 K	0.0369 kPa
309.3 K	0.04816 kPa
310.4 K	0.05059 kPa and 0.04222 kPa and 0.04205 kPa
312.3 K	0.06434 kPa and 0.06424 kPa
313.2 K	0.06711 kPa
313.3 K	0.06784 kPa
313.4 K	0.05485 kPa
315.4 K	0.06624 kPa
316.2 K	0.09048 kPa
316.3 K	0.08971 kPa and 0.0869 kPa
318.3 K	0.09934 kPa
318.4 K	0.08522 kPa
319.3 K	0.113 kPa
320.4 K	0.1173 kPa and 0.09922 kPa
320.5 K	0.09891 kPa
321.3 K	0.1276 kPa
322.3 K	0.1391 kPa
322.5 K	0.1397 kPa
323.4 K	0.1284 kPa
323.5 K	0.1563 kPa and 0.1318 kPa
324.5 K	0.1349 kPa
325.3 K	0.1747 kPa and 0.1406 kPa
325.4 K	0.1734 kPa
326.4 K	0.1847 kPa
326.5 K	0.1504 kPa
327.3 K	0.1676 kPa
327.4 K	0.1988 kPa
328.3 K	0.2178 kPa
328.4 K	0.184 kPa
328.5 K	0.1824 kPa
328.6 K	0.2155 kPa
329.5 K	0.2399 kPa
331.3 K	0.2757 kPa
331.4 K	0.2346 kPa
333.3 K	0.2616 kPa
335.4 K	0.303 kPa
338.4 K	0.3685 kPa
